Like-named read-outs stand apart in the source and are kept apart here.
Legend:
Experiment in all cases: Agar dilution MIC, in vitro antibacterial activity test
Format in all cases: cell-based
[1] = test system: Pseudomonas aeruginosa 1771 M; conditions: 18 h
Procedure: (§1) The antibacterial activity of each of sulbactam and the compounds I, II, III and IV was measured according to the agar dilution method using Mueller Hinton agar. The compounds to be tested were diluted twice in stages and then introduced into the agar plate. On this agar plate the selected bacterial strains were inoculated and then incubated at 37 °C for 18 hours. The agar plate was then visually observed to determine the minimum concentration, at which the growth of bacterial strains was not observed, which is then designated as the MIC value of the relevant antibiotic compound.
(§2) In the same manner, the MIC value of the compound I, II, III or IV in the presence of sulbactam was measured. In this case, the concentration of sulbactam in each agar plate should be constantly maintained at about 13µg/ml, which corresponds to approximately a quarter of the MIC value of sulbactam, to ensure that the decrease in MIC value of the compounds I - IV in the presence of sulbactam is not affected by the antibacterial activity of sulbactam itself. […] As a result of this experiment, the MIC values of each of four kinds of antibiotics, i.e. the compound I, II, III or IV used alone and in the presence of sulbactam were compared to each other and then the synergistic effect of the composition of the present invention was estimated.

Escherichia coli DC 0 = conditions: DC0, 18 h
Procedure: as §1, §2

Escherichia coli DC 2 = conditions: DC2, 18 h
Procedure: as §1, §2

Escherichia coli TEM = conditions: 18 h
Procedure: as §1, §2

[2] = test system: Staphylococcus aureus 503; conditions: Staphylococcus aureus, 503, 18 h
Procedure: as §1, §2

Escherichia coli 1507 E = conditions: 18 h
Procedure: as §1, §2

[3] = test system: Staphylococcus aureus 285; conditions: Staphylococcus aureus, 285, 18 h
Procedure: as §1, §2

Escherichia coli O 55 = conditions: O55, 18 h
Procedure: as §1, §2

[4] = alone, Mueller Hinton agar, 37°C, read-out: MIC value
[5] = in the presence of sulbactam(13μg/ml), Mueller Hinton agar, 37°C, read-out: MIC value
[6] = read-out: MIC value, alone, Mueller Hinton agar, 37°C
[7] = read-out: MIC value, in the presence of sulbactam(13μg/ml), Mueller Hinton agar, 37°C

CC1(C)S[C@@H]2C(NC(=O)[C@H](N)c3ccc(O)cc3)C(=O)N2[C@H]1C(=O)O (stereo partly drawn) [compound I, 6-[D(-)-α-amino-p-hydroxyphenylacetamido]penicillanic acid]
MIC [1, 4]: 0.098 µg/mL | MIC [1, 5]: 0.098 µg/mL | MIC (Escherichia coli DC 0; [4]): 6.25 µg/mL | MIC (Escherichia coli DC 0; [5]): 0.781 µg/mL | MIC (Escherichia coli DC 2; [6]): 1.56 µg/mL | MIC (Escherichia coli DC 2; [7]): 0.781 µg/mL | MIC (Escherichia coli TEM; [6]): > 100 µg/mL | MIC (Escherichia coli TEM; [7]): > 100 µg/mL | MIC [2, 4]: 1.56 µg/mL | MIC [2, 5]: 0.098 µg/mL | MIC (Escherichia coli 1507 E; [4]): 3.12 µg/mL | MIC (Escherichia coli 1507 E; [5]): 0.391 µg/mL | MIC [3, 4]: 1.56 µg/mL | MIC [3, 5]: 0.195 µg/mL | MIC (Escherichia coli O 55; [4]): 1.56 µg/mL | MIC (Escherichia coli O 55; [5]): < 0.002 µg/mL

C=N[C@@H](C(=O)NC1C(=O)N2[C@@H]1SC(C)(C)[C@@H]2C(=O)O)c1ccc(O)cc1 (stereo partly drawn) [compound II, 6-[D-2-(methyleneamino)-2-(4-hydroxyphenyl)acetamido]penicillanic acid]
MIC [1, 4]: 0.195 µg/mL | MIC [1, 5]: 0.049 µg/mL | MIC (Escherichia coli DC 0; [4]): 6.25 µg/mL | MIC (Escherichia coli DC 0; [5]): 3.12 µg/mL | MIC (Escherichia coli DC 2; [4]): 1.56 µg/mL | MIC (Escherichia coli DC 2; [5]): 0.781 µg/mL | MIC (Escherichia coli TEM; [6]): > 100 µg/mL | MIC (Escherichia coli TEM; [7]): > 100 µg/mL | MIC [2, 4]: 1.56 µg/mL | MIC [2, 5]: 0.098 µg/mL | MIC (Escherichia coli 1507 E; [4]): 6.25 µg/mL | MIC (Escherichia coli 1507 E; [5]): 0.098 µg/mL | MIC [3, 4]: 1.56 µg/mL | MIC [3, 5]: 0.195 µg/mL | MIC (Escherichia coli O 55; [4]): 1.56 µg/mL | MIC (Escherichia coli O 55; [5]): < 0.002 µg/mL

CCN1CCN(C(=O)N[C@@H](C(=O)NC2C(=O)N3[C@@H]2SC(C)(C)[C@@H]3C(=O)O)c2ccc(O)cc2)C(=O)C1=O (stereo partly drawn) [compound III, 6-[D-2-(4-ethyl-2,3-dioxopiperazinocarbonylamino)-2-(4-hydroxyphenyl)acetamido]penicillanic acid]
MIC [1, 4]: 0.098 µg/mL | MIC [1, 5]: 0.025 µg/mL | MIC (Escherichia coli DC 0; [5]): 0.195 µg/mL | MIC (Escherichia coli DC 0; [6]): 1.56 µg/mL | MIC (Escherichia coli DC 2; [4]): 0.098 µg/mL | MIC (Escherichia coli DC 2; [5]): 0.025 µg/mL | MIC (Escherichia coli TEM; [6]): > 100 µg/mL | MIC (Escherichia coli TEM; [7]): 1.56 µg/mL | MIC [2, 4]: 6.25 µg/mL | MIC [2, 5]: 0.391 µg/mL | MIC (Escherichia coli 1507 E; [4]): 0.781 µg/mL | MIC (Escherichia coli 1507 E; [5]): 0.098 µg/mL | MIC [3, 4]: 3.12 µg/mL | MIC [3, 5]: 0.781 µg/mL | MIC (Escherichia coli O 55; [4]): 0.195 µg/mL | MIC (Escherichia coli O 55; [5]): < 0.002 µg/mL

CNC(=O)C[C@@H](N)C(=O)N[C@@H](C(=O)N[C@@H]1C(=O)N2[C@@H]1SC(C)(C)[C@@H]2C(=O)O)c1ccc(O)cc1 [compound IV, 6-[D-2-(D-2-amino-3-N-methylcarbamoyl-propionamido)-2-p-hydroxyphenylacetamido]penicillanic acid]
MIC [1, 6]: 0.391 µg/mL | MIC [1, 7]: 0.025 µg/mL | MIC (Escherichia coli DC 0; [6]): 3.12 µg/mL | MIC (Escherichia coli DC 0; [7]): 0.781 µg/mL | MIC (Escherichia coli DC 2; [6]): 0.781 µg/mL | MIC (Escherichia coli DC 2; [7]): 0.195 µg/mL | MIC (Escherichia coli TEM; [6]): > 100 µg/mL | MIC (Escherichia coli TEM; [7]): 25 µg/mL | MIC [2, 6]: 6.25 µg/mL | MIC [2, 7]: 1.56 µg/mL | MIC (Escherichia coli 1507 E; [6]): 3.12 µg/mL | MIC (Escherichia coli 1507 E; [7]): 0.098 µg/mL | MIC [3, 6]: 6.25 µg/mL | MIC [3, 7]: 1.56 µg/mL | MIC (Escherichia coli O 55; [6]): 0.781 µg/mL | MIC (Escherichia coli O 55; [7]): < 0.002 µg/mL

CC1(C)[C@H](C(=O)O)N2C(=O)C[C@H]2S1(=O)=O [sulbactam]
MIC [1, 6]: 50 µg/mL | MIC (Escherichia coli DC 0; [6]): > 100 µg/mL | MIC (Escherichia coli DC 2; [6]): 100 µg/mL | MIC (Escherichia coli TEM; [6]): > 100 µg/mL | MIC [2, 6]: 100 µg/mL | MIC (Escherichia coli 1507 E; [6]): > 100 µg/mL | MIC [3, 6]: 100 µg/mL | MIC (Escherichia coli O 55; [6]): 100 µg/mL

Source: patent EP0606506A1, “Beta-lactamase resistant antibacterial composition” (Kim, Yeong Sul, priority 1993, dated 1994)
